Data: US9986723B2, “Screen and use of therapeutics for pancreatic ductal adenocarcinoma” (The Board of Regents of the University of Texas System, priority 2014, dated 2018)

Columns and labels:
C5LM2 cells = test: Liver metastases after intrasplenic tumor cell injection; assay type: in vivo, mouse; conditions: warfarin 1 mg/L, pre or post (48 hrs) tumor cell injection
Description: FIGS. 25A-I. Axl inhibition reduces colony formation and enhances chemotherapy. (FIGS. 25A-C) parental Mia PaCa-2 cells or Mia PaCa-2 cells stably transfected with shRNA targeting Axl (Mia shAxl) were grown as spheroids in matrigel for 7 days in the presence or absence of warfarin (200 ng/ml), n=4/condition. Mia PaCa-2 cell colonies form large stellate colonies characteristic of invasive tumor growth. Colonies and cognate cell projections were imaged (FIG. 25A) with a Nikon Phase contrast microscope using 40× and 200× magnification. Mean total colony number (FIG. 25B) and total colony area+/−s.d. (FIG. 25C) reflective of invasive growth were calculated using Image J image analysis. […] (FIG. 25E) liver metastases were quantified after intrasplenic injection of C5LM2 cells. […] Mice were sacrificed when control treated animals were moribund and primary and metastatic burden was determined. […]
Animal studies. […] Mice with established tumors, as determined by sonography were randomized to receive normal drinking water or water containing 1 mg/L (˜3.0 μM) warfarin for experiments in immunocompromised mice and 0.5 mg/L (˜1.5 μM) in experiments in immunocompetent animals with or without gemcitabine 25 mg/kg twice weekly depending on experimental design. […] Metastatic incidence was determined by visual inspection of the liver and abdominal cavity and confirmed by H&E of liver sections. […]

[1] = target: vitamin K epoxide reductase (Homo sapiens, UniProt Q9BQB6); conditions: cited from earlier work
vitamin K epoxide reductase, sequence (Q9BQB6 whole entry): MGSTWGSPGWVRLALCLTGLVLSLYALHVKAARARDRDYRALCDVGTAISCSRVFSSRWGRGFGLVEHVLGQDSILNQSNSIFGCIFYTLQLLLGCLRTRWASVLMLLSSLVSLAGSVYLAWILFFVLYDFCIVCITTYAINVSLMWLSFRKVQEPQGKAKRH

Panc-1 cells = test: In vitro EMT assay (TGF-β and collagen); assay type: cell-based, human; conditions: warfarin 2 μM
Description: FIGS. 26A-C. […] (FIG. 26A) the expression level of pAxl, Zeb1 and nuclear β-catenin in Panc1 cells in vitro was measured by immunofluorescence under normal culture conditions or after growth on collagen matrix and treatment with TGF-β (20 ng/ml) to induce epithelial to mesenchymal transition, with or without warfarin (2 μM). p-Axl was normalized to total Axl area. (FIG. 26B) Panc1 cells were treated with either SFM, recombinant Gas 6 (100 ng/ml) or Gas6 following pretreatment with 10C9 (mAb anti-Axl). Transition to a mesenchymal phenotype was characterized by changes in vimentin and nuclear Zeb1 expression determined by immunofluoresence. […] (FIG. 26C) Paraffin embedded sections of Panc-1 tumors were analyzed by immunofluorescence for markers of EMT.

CC(=O)CC(c1ccccc1)c1c(O)c2ccccc2oc1=O (racemic) [Warfarin]
liver colonization after intrasplenic injection (C5LM2 cells): inhibited liver colonization
duration of action of a single dose [1]: 2 to 5 days
Zeb1 and nuclear β-catenin levels (Panc-1 cells; TGF-β 20 ng/ml, collagen): significantly reduced
TGFβ and collagen I enhanced Axl expression and activation (Panc-1 cells): blocked
